From paper PMC3437750 (Journal of medicinal chemistry, 2011)

Key:
[1] = biological target: T1, purified human PMM2 (Homo sapiens, UniProt O15305); assay: PMM2 in vitro enzymatic concentration-response assay; format: biochemical; details: tested up to 20 µM where stated
T1 sequence (O15305 1-246): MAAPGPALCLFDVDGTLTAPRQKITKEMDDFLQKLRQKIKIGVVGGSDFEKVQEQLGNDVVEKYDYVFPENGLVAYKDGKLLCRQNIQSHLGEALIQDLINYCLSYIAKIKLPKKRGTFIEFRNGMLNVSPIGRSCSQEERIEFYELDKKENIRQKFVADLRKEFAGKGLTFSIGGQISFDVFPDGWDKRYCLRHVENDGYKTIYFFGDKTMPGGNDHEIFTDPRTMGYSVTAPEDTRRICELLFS

[2] = tested on: Hela cells
[3] = biological target: T2, purified human PMI (Homo sapiens, UniProt P34949); format: biochemical
T2 sequence (P34949 1-423): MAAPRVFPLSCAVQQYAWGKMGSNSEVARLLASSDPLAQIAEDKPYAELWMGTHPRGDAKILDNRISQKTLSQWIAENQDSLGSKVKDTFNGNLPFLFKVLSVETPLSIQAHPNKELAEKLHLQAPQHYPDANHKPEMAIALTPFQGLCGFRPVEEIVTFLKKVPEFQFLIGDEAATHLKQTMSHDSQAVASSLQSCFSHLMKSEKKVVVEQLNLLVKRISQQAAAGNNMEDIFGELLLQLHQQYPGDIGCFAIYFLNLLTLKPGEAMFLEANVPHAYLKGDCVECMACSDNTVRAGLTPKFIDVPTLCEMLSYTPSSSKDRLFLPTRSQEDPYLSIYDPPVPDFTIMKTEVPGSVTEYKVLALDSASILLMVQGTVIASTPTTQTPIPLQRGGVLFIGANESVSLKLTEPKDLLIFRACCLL

[4] = Parallel Artificial Membrane Permeation Assay; format: in vitro ADME; details: assessed in vitro, PAMPA
[5] = Glutathione conjugation assay; details: 10 µM, 2 mg/mL rat hepatic S9, 10 mM glutathione, 37°C, 2 hours

O=c1c2ccccc2sn1-c1ccccc1 [Compound 1, 2-Phenyl-2-hydrobenzo[d]isothiazol-3-one]
PMM2 inhibition (in words) [1]: selective for PMI over PMM2

O=c1c2ccccc2sn1-c1ccc(C(F)(F)F)cc1 [Compound 6, 2-[4-(Trifluoromethyl)phenyl]-2-hydrobenzo[d]isothiazol-3-one]
cellular toxicity (35S-Met/Cys incorporation, in words) [2]: exhibits cellular toxicity | PMI inhibition (in words) [3]: inactive against both enzymes | PMM2 inhibition (in words) [1]: inactive against both enzymes

Cc1ccc(C)c(-n2sc3ccccc3c2=O)c1 [Compound 16, 2-(2,5-dimethylphenyl) benzo[d]isothiazol-3(2H)-one]
PMM2 inhibition (in words) [1]: a measurable inhibition of PMM2 was observed

O=c1c2cc(F)ccc2sn1-c1ccccc1 [Compound 19, 5-Fluoro-2-phenylbenzo[d]isothiazol-3(2H)-one]
predicted permeability (in words) [4]: moderately permeable | GSH adduct formation by LCMS (in words) [5]: no GSH adducts were observed

O=C(O)Cc1ccccc1Nc1c(Cl)cccc1Cl [diclofenac, reference compound]
GSH adduct formation by LCMS (in words) [5]: showed the expected conjugate masses
